Our source for the IC50 and SER2 (concentration values is patent US9586951B2 (FUJIFILM Corporation, priority 2013, dated 2017).

In one assay the target is T1, ATM (Homo sapiens, UniProt Q13315).
T1 construct: detecting phosphorylation of Chk2 in a human non-small cell lung cancer cell line NCI-H460 (ATCC company); host or cells: NCI-H460 human non-small cell lung cancer cells
The experiment in a line: ATM inhibition test (phosphorylation of Chk2 generated by ionizing radiation, AlphaScreen SureFire). Format: cell-based. As to conditions: phosphorylated Chk2 in NCI-H460 cells, ionizing radiation 8Gy, 1 hour after test compound treatment; read-out: ATM inhibitory activity. The essentials: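 Phosphorylated Chk2 read by AlphaScreen SureFire in human non-small cell lung cancer NCI-H460 cells, 1 hour after 8Gy ionizing radiation at 37° C. Compound added 1 hour before irradiation. Percent inhibition normalised between irradiated and non-irradiated drug-untreated signals.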
On the technique in general: Bead proximity is the source of the signal in Alpha formats.

Assay [1] deals with human non-small cell lung cancer cell line NCI-H460. In words: Cell proliferation inhibition test by sensitivity-enhancing to ionizing radiation (Cell Titer Glo). The settings on record: concentration in which SER became 2, NCI-H460 cells, ionizing radiation 2 Gy, cultured 120 hour. It is filed as cell-based. The essentials:
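Cells seeded at 2×10^3 cells/mL in RPMI-1640 with 10% FBS; after 24 h, compound added (0.1% DMSO), and 30 min later half the plates irradiated at 2 Gy. After 120 hour at 37° C, viability by Cell Titer Glo luminescence; SER2 is the concentration giving SER of 2 by sigmoidal fit.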
(ATP-based viability assays read luminescence as a measure of living cells.)

T1 sequence (Q13315 whole entry): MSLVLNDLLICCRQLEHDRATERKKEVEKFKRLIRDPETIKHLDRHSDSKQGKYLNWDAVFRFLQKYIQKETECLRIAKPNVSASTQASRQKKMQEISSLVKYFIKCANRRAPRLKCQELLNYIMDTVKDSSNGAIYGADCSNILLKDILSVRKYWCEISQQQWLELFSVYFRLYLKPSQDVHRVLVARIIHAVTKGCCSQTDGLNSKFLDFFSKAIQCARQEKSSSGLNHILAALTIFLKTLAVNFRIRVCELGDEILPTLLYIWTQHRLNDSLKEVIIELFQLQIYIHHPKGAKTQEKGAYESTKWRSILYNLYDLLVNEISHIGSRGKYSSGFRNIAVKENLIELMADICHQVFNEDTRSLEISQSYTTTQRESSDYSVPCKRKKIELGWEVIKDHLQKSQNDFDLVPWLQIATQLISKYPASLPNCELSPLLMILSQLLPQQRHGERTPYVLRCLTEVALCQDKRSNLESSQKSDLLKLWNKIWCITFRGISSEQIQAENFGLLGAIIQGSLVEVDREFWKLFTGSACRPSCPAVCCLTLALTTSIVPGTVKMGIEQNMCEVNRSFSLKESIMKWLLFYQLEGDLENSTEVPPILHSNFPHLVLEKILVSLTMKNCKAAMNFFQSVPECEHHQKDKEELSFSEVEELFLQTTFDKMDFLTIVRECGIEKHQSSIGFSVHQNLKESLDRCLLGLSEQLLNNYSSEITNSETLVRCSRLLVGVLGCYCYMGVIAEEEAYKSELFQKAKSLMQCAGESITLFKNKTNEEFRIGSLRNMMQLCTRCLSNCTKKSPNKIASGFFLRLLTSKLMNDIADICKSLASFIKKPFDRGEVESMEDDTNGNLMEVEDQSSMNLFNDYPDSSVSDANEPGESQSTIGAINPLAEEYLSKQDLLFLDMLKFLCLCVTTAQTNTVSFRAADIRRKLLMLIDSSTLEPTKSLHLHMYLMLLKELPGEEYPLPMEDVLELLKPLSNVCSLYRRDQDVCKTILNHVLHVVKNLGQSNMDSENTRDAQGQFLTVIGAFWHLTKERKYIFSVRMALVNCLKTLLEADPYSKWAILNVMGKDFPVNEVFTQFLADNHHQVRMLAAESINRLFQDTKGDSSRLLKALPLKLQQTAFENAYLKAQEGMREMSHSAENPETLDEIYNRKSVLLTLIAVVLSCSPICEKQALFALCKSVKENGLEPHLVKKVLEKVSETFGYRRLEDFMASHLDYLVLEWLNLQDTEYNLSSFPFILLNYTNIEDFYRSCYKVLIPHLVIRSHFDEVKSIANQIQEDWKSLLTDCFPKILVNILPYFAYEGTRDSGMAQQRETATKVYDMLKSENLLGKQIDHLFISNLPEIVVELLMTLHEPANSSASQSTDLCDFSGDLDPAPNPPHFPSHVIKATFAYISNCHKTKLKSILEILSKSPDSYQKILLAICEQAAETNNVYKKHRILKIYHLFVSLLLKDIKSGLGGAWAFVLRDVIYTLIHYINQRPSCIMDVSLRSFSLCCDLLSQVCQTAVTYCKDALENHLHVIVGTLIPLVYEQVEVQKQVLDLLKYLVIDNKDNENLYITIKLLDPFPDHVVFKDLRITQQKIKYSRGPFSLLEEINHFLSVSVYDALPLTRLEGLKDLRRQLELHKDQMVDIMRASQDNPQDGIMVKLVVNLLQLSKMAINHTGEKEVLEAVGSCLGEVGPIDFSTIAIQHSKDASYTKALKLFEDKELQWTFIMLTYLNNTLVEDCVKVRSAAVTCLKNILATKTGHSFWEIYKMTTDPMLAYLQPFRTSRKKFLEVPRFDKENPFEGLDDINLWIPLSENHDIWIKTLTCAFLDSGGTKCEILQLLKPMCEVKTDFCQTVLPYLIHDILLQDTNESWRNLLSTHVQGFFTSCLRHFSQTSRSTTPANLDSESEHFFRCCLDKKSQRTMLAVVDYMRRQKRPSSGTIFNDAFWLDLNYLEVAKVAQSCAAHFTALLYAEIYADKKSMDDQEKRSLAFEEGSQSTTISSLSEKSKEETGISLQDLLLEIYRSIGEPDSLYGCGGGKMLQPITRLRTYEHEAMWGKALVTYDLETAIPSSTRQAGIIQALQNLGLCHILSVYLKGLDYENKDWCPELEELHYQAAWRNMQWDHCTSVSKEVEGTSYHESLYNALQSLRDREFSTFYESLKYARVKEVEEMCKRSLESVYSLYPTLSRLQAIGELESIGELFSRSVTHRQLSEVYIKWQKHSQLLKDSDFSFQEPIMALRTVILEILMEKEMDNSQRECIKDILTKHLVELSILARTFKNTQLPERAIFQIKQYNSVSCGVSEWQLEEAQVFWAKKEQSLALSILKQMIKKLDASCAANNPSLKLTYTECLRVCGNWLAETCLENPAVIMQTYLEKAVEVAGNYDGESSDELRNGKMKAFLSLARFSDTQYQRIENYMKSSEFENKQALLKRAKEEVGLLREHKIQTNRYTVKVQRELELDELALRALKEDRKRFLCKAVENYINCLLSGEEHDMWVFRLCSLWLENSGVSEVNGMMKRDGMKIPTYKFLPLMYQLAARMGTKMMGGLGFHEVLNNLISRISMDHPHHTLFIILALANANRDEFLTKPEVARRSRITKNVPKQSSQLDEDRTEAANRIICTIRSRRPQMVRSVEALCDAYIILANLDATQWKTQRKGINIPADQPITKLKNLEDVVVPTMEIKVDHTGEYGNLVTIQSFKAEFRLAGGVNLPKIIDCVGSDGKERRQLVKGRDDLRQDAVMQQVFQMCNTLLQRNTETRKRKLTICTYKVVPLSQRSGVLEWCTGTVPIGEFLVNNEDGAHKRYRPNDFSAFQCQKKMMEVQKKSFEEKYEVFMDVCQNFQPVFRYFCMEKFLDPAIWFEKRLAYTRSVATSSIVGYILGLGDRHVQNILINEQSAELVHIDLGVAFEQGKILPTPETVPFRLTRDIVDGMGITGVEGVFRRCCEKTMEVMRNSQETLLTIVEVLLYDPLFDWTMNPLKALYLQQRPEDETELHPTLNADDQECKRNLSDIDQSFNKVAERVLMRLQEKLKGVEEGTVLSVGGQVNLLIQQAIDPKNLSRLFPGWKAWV

For `O=c1cc(N2CCOCC2)cc(-c2cccc3c2Oc2ccc(NCc4ccnc(F)c4)cc2C3)[nH]1` [Example 2-21-2, 6-(7-(((2-Fluoropyridin-4-yl)methyl)amino)-9H-xanthen-4-yl)-4-morpholinopyridin-2 (1H)-one], on ATM, the IC50 was below 100 nM. Also, the SER2 (concentration at which the radiation sensitivity-enhancement ratio reaches 2) in assay [1] (Homo sapiens, NCI-H460, 120 h) lay within 100 to 500 nM.
The like results for `COc1ccnc(CNc2ccc3c(c2)Cc2ccnc(-c4cc(N5CCOCC5)cc(=O)[nH]4)c2O3)c1` [Example 2-41-4, 6-(7-(((4-Methoxypyridin-2-yl)methyl)amino)-5H-chromeno[2,3-c]pyridin-1-yl)-4-morpholino pyridin-2 (1H)-one] were, in that order, below 100 nM and 100 to 500 nM.
Turning to `CNc1ncc(CNc2ccc3c(c2)Sc2cccc(-c4cc(N5CCOCC5)cc(=O)[nH]4)c2O3)cn1` [Example 4-4-13, 6-(8-(((2-(Methylamino)pyrimidin-5-yl)methyl)amino)phenoxathiin-4-yl)-4-morpholino pyridin-2(1H)-one], the IC50 on ATM was below 100 nM. The SER2 (concentration at which the radiation sensitivity-enhancement ratio reaches 2) in assay [1] (Homo sapiens, NCI-H460, 120 h) lay in the range of 100 to 500 nM.
For `CC(Nc1ccc2c(c1)Cc1cccc(-c3cc(N4CCOCC4)cc(=O)[nH]3)c1O2)c1nccc(CF)n1` (stereo not drawn) [Example 2-14-61, 6-(7-((1-(4-(Fluoromethyl)pyrimidin-2-yl)ethyl)amino)-9H-xanthen-4-yl)-4-morpholino pyridin-2(1H)-one], in that order: below 100 nM and below 100 nM.
For the molecule `Cc1cnc(CNc2ccc3c(c2)Sc2cccc(-c4cc(N5CCOCC5)cc(=O)[nH]4)c2S3)cn1` [Example 1-12-62, 6-(7-(((5-Methylpyrazin-2-yl)methyl)amino)thianthren-1-yl)-4-morpholino pyridin-2 (1H)-one], the IC50 at ATM is below 100 nM. Further, in assay [1] (Homo sapiens, NCI-H460, 120 h), the SER2 (concentration at which the radiation sensitivity-enhancement ratio reaches 2) was in the range of 100 to 500 nM.
For the molecule `Cc1ccc(C(Nc2ccc3c(c2)Sc2cccc(-c4cc(N5CCOCC5)cc(=O)[nH]4)c2S3)C2CC2)nc1` (stereo not drawn) [Example 1-12-123, 6-(7-((Cyclopropyl(5-methylpyridin-2-yl)methyl)amino)thianthren-1-yl)-4-morpholino pyridin-2(1H)-one], the IC50 at ATM is below 100 nM. For the same molecule, in assay [1] (Homo sapiens, NCI-H460, 120 h), the SER2 (concentration at which the radiation sensitivity-enhancement ratio reaches 2) is 100 to 500 nM.
For `O=c1cc(N2CCOCC2)cc(-c2cccc3c2Sc2ccc(NC4CCN(C5CC5)CC4)cc2S3)[nH]1` [Example 1-24-18, 6-(7-((1-Cyclopropylpiperidin-4-yl)amino)thianthren-1-yl)-4-morpholino pyridin-2(1H)-one], in that order: below 100 nM and 100 to 500 nM.
For `COc1cncc(CNc2ccc3c(c2)Sc2cccc(-c4cc(N5CCOCC5)cc(=O)[nH]4)c2S3)c1` [Example 1-44-1, 6-(7-(((5-methoxypyridin-3-yl)methyl)amino)thianthren-1-yl)-4-morpholinopyridin-2(1H)-one], in that order: below 100 nM and 500 to 2000 nM.
`CCC(CN1CCOCC1)Nc1ccc2c(c1)Sc1cccc(-c3cc(N4CCOCC4)cc(=O)[nH]3)c1S2` (stereo not drawn) [Example 1-13-1, 4-Morpholino-6-(7-((1-morpholinobutan-2-yl)amino)thianthren-1-yl)pyridin-2(1H)-one]: the IC50 at ATM is below 100 nM. Moreover, the SER2 (concentration at which the radiation sensitivity-enhancement ratio reaches 2) in assay [1] (Homo sapiens, NCI-H460, 120 h) was in the range of 100 to 500 nM.
The like results for `Cc1ccc(C(Nc2ccc3c(c2)Sc2cccc(-c4cc(N5CCOCC5)cc(=O)[nH]4)c2S3)C2CCCN(C)C2)nc1` (stereo not drawn) [Example 1-22-10, 6-(7-(((1-Methylpiperidin-3-yl)(5-methylpyridin-2-yl)methyl)amino)thianthren-1-yl)-4-morpholino pyridin-2(1H)-one] were, in that order, below 100 nM and 100 to 500 nM.
`COC(=O)C(Nc1ccc2c(c1)Sc1cccc(-c3cc(N4CCOCC4)cc(=O)[nH]3)c1S2)c1cccc(C)n1` (stereo not drawn) [Example 1-12-107, Methyl 2-(6-methylpyridin 2-yl)-2-((6-(4-morpholino-6-oxo-1,6-dihydropyridin-2 yl)thianthren-2-yl)amino) acetate]: on ATM, the IC50 is below 100 nM. Besides, the SER2 (concentration at which the radiation sensitivity-enhancement ratio reaches 2) in assay [1] (Homo sapiens, NCI-H460, 120 h) lay in the range of 100 to 500 nM.
Take `Cc1cccc(C(CO)Nc2ccc3c(c2)Sc2cccc(-c4cc(N5CCOCC5)cc(=O)[nH]4)c2S3)n1` (stereo not drawn) [Example 1-12-71, 6-(7-((2-Hydroxy-1-(6-methylpyridin-2-yl)ethyl)amino)thianthren-1-yl)-4-morpholino pyridin-2(1H)-one]: the IC50 at ATM was below 100 nM. For the same molecule, the SER2 (concentration at which the radiation sensitivity-enhancement ratio reaches 2) in assay [1] (Homo sapiens, NCI-H460, 120 h) lay in the range of 100 to 500 nM.
Regarding `CC(CN1CCOCC1)Nc1ccc2c(c1)Sc1cccc(-c3cc(N4CCOCC4)cc(=O)[nH]3)c1S2` (single isomer, unassigned) [Example 1-13-2-2, 4-morpholino-6-(7-((1-morpholinopropan-2-yl)amino)thianthren-1-yl)pyridin-2(1H)-one], on ATM, the IC50 was below 100 nM. Moreover, the SER2 (concentration at which the radiation sensitivity-enhancement ratio reaches 2) in assay [1] (Homo sapiens, NCI-H460, 120 h) is below 100 nM.
Regarding `Cc1cccc(C(C)Nc2ccc3c(c2)Sc2cccc(-c4cc(N5CCOCC5)cc(=O)[nH]4)c2S3)n1` (single isomer, unassigned) [Example 1-12-136-2, 6-(7-((1-(6-methylpyridin-2-yl)ethyl)amino)thianthren-1-yl)-4-morpholinopyridin-2(1H)-one], the IC50 on ATM was below 100 nM. Besides, in assay [1], the SER2 (concentration at which the radiation sensitivity-enhancement ratio reaches 2) lay in the range of 100 to 500 nM.
Take `Cc1ccc(C(Nc2ccc3c(c2)Sc2cccc(-c4cc(N5CCOCC5)cc(=O)[nH]4)c2S3)C2CN(C)CCO2)nc1` (single isomer, unassigned) [Example 1-52-1, 6-(7-(((4-methylmorpholin-2-yl)(5-methylpyridin-2-yl)methyl)amino)thianthren-1-yl)-4-morpholinopyridin-2(1H)-one]: the IC50 on ATM was below 100 nM. Further, in assay [1] (Homo sapiens, NCI-H460, 120 h), the SER2 (concentration at which the radiation sensitivity-enhancement ratio reaches 2) is below 100 nM.
Regarding `Nc1ccc2c(c1)Sc1cccc(-c3cc(N4CCOCC4)cc(=O)[nH]3)c1S2` [Example 1-1, 6-(7-aminothianthren-1-yl)-4-morpholinopyridin-2(1H)-one], on ATM, the IC50 was below 100 nM. Besides, the SER2 (concentration at which the radiation sensitivity-enhancement ratio reaches 2) in assay [1] (Homo sapiens, NCI-H460, 120 h) is 500 to 2000 nM.
Consider `O=c1cc(N2CCOCC2)cc(-c2cccc3c2Sc2ccc(NCc4cc(Cl)ccn4)cc2S3)[nH]1` [Example 1-12-3, 6-(7-(((4-Chloropyridin-2-yl)methyl)amino)thianthren-1-yl)-4-morpholino pyridin-2 (1H)-one], for which the IC50 on ATM is below 100 nM. Further, the SER2 (concentration at which the radiation sensitivity-enhancement ratio reaches 2) in assay [1] (Homo sapiens, NCI-H460, 120 h) is 100 to 500 nM.
With `Cc1ccc(C(Nc2ccc3c(c2)Sc2cccc(-c4cc(N5CCOCC5)cc(=O)[nH]4)c2S3)C2CN(C)CCO2)nc1` (single isomer, unassigned) [Example 1-52-2, 6-(7-(((4-methylmorpholin-2-yl)(5-methylpyridin-2-yl)methyl)amino)thianthren-1-yl)-4-morpholinopyridin-2(1H)-one], the IC50 on ATM was below 100 nM. Further, the SER2 (concentration at which the radiation sensitivity-enhancement ratio reaches 2) in assay [1] was below 100 nM.
In the case of `COCC(CN1CCOCC1)Nc1ccc2c(c1)Sc1cccc(-c3cc(N4CCOCC4)cc(=O)[nH]3)c1S2` (racemic) [Example 1-17-1-1, 6-(7-((1-Methoxy-3-morpholinopropan-2-yl)amino)thianthren-1-yl)-4-morpholinopyridin-2(1H)-one], the IC50 at ATM was below 100 nM. Also, in assay [1] (Homo sapiens, NCI-H460, 120 h), the SER2 (concentration at which the radiation sensitivity-enhancement ratio reaches 2) is below 100 nM.
With `C[C@@H]1CN(CCNc2ccc3c(c2)Sc2cccc(-c4cc(N5CCOCC5)cc(=O)[nH]4)c2S3)C[C@H](C)O1` [Example 1-10-14, 6-(7-((2-((2S,6R)-2,6- Dimethylmorpholino)ethyl)amino)thianthren-1-yl)-4-morpholino pyridin-2(1H)-one], the IC50 at ATM is below 100 nM. In assay [1] (Homo sapiens, NCI-H460, 120 h), the SER2 (concentration at which the radiation sensitivity-enhancement ratio reaches 2) fell in the range of 100 to 500 nM.
As to `COc1cncc(C(C)Nc2ccc3c(c2)Sc2cccc(-c4cc(N5CCOCC5)cc(=O)[nH]4)c2S3)c1` (single isomer, unassigned) [Example 1-12-145-1, 6-(7-((1-(5-methoxypyridin-3-yl)ethyl)amino)thianthren-1-yl)-4-morpholinopyridin-2(1H)-one], the IC50 on ATM is below 100 nM. Besides, the SER2 (concentration at which the radiation sensitivity-enhancement ratio reaches 2) in assay [1] (Homo sapiens, NCI-H460, 120 h) was 100 to 500 nM.
Regarding `O=c1cc(N2CCOCC2)cc(-c2c(F)ccc3c2Oc2ccc(NCc4cccc(Cl)n4)cc2C3)[nH]1` [Example 2-46-1, 6-(7-(((6-Chloropyridin-2-yl)methyl)amino)-3-fluoro-9H-xanthen-4-yl)-4-morpholinopyridin-2(1H)-one], the IC50 at ATM is below 100 nM. Further, in assay [1] (Homo sapiens, NCI-H460, 120 h), the SER2 (concentration at which the radiation sensitivity-enhancement ratio reaches 2) is below 100 nM.
In the case of `COc1cc(OC)nc(CNc2ccc3c(c2)Cc2cccc(-c4cc(N5CCOCC5)cc(=O)[nH]4)c2O3)n1` [Example 2-2-51, 6-(7-(((4,6-Dimethoxypyrimidin-2-yl)methyl)amino)-9H-xanthen-4-yl)-4-morpholino pyridin-2 (1H)-one], at ATM, the IC50 was below 100 nM. In addition, the SER2 (concentration at which the radiation sensitivity-enhancement ratio reaches 2) in assay [1] (Homo sapiens, NCI-H460, 120 h) is 500 to 2000 nM.
In the case of `Cc1cncc(C(C)Nc2ccc3c(c2)Sc2cccc(-c4cc(N5CCOCC5)cc(=O)[nH]4)c2S3)c1` (stereo not drawn) [Example 1-12-50, 6-(7-((1-(5-Methylpyridin-3-yl)ethyl)amino)thianthren-1-yl)-4-morpholino pyridin-2 (1H)-one], the IC50 at ATM is below 100 nM. In assay [1] (Homo sapiens, NCI-H460, 120 h), the SER2 (concentration at which the radiation sensitivity-enhancement ratio reaches 2) lay in the range of 100 to 500 nM.
